Values after ≈ are worked out from the molar mass of the structure shown.
Key:
Enterococcus faecium [1] = test: Inhibitory activity against Streptococcus faecium MTX-resistant; assay type: functional, organism-based
Enterococcus faecium [2] = test: Inhibitory activity against Streptococcus faecium ATCC 8043; assay type: functional, organism-based
Lacticaseibacillus casei [3] = test: Inhibitory activity against Lactobacillus casei MTX-resistant; assay type: functional, organism-based
Lacticaseibacillus casei [4] = test: Inhibitory activity against Lactobacillus casei ATCC 7469; assay type: functional, organism-based
Dihydrofolate reductase = Dihydrofolate reductase (Lactobacillus casei, UniProt P00381)
Chain of Dihydrofolate reductase (P00381 whole entry): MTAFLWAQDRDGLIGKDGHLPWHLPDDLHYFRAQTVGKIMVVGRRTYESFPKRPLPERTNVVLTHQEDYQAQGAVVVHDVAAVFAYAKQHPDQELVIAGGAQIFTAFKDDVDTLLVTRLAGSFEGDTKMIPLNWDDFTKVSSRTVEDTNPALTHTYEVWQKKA
Description: Inhibitory activity against dihydrofolate reductase derived from Lactobacillus casei

Thymidylate synthase [5] = molecular target: T1, Thymidylate synthase (Lactobacillus casei, UniProt P00469); test: Inhibitory activity against thymidylate synthase derived from Lactobacillus casei; design: species or system Lacticaseibacillus casei
T1 sequence (P00469 whole entry): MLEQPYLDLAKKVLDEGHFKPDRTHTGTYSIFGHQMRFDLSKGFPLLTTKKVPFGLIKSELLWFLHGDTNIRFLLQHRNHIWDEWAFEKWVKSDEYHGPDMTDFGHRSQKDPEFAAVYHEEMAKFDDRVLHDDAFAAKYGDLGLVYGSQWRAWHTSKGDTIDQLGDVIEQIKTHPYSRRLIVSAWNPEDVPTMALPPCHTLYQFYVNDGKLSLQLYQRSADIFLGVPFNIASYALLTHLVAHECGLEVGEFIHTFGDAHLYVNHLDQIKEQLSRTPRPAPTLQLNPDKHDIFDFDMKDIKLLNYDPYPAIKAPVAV

Thymidylate synthase [6] = molecular target: T2, Thymidylate synthase (Mus musculus, UniProt P07607); test: Inhibitory activity against thymidylate synthase in the intact L1210 cells; assay type: cell-based
T2 sequence (P07607 whole entry): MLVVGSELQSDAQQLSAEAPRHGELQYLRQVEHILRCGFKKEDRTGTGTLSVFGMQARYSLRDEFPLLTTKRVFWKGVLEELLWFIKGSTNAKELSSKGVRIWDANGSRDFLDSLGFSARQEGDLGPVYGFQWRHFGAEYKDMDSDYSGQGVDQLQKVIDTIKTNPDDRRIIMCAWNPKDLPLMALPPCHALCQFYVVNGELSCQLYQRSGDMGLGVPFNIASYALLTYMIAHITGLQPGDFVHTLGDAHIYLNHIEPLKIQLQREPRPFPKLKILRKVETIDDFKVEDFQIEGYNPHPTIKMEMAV

Thymidylate synthase [7] = molecular target: T2, Thymidylate synthase; test: Inhibitory activity against the thymidylate synthase in the Permeabilized L1210 cells; assay type: cell-based
[8] = Lacticaseibacillus casei, read-out: IC50

| IC50 (Lacticaseibacillus casei [3]) [ng/mL] | SMILES | IC50 (Enterococcus faecium [1]) [ng/mL] | IC50 (Enterococcus faecium [2]) [ng/mL] | IC50 (Lacticaseibacillus casei [3]; [8]) [ng/mL] | IC50 (Lacticaseibacillus casei [4]) [ng/mL] | IC50 (Dihydrofolate reductase) [µM] | IC50 (Thymidylate synthase [5]) [µM] | IC50 (Thymidylate synthase [6]) [µM] | IC50 (Thymidylate synthase [7]) [µM] |
| --- | --- | --- | --- | --- | --- | --- | --- | --- | --- |
| – | C#CCN(CC1=Nc2c(O)nc(N)nc2NC1)c1ccc(C(=O)NC(CCC(=O)O)C(=O)O)cc1 (stereo not drawn) | 24 (≈ 0.0498 µM) | 0.13 (≈ 0.00027 µM) | > 2000 | 36 (≈ 0.0748 µM) | > 50 | 50 | – | – |
| – | C#CCN(CC1CNc2nc(N)nc(O)c2N1)c1ccc(C(=O)NC(CCC(=O)O)C(=O)O)cc1 (stereo not drawn) | > 2000 | 0.08 (≈ 0.000165 µM) | > 2000 | > 2000 | > 140 | 32 | – | – |
| – | CN(Cc1cnc2nc(N)nc(O)c2n1)c1ccc(C(=O)NC(CCC(=O)O)C(=O)O)cc1 (stereo not drawn) | – | – | – | – | – | – | > 1000 | 660 |
| – | C#CCN(Cc1cnc2nc(N)nc(O)c2n1)c1ccc(C(=O)O)cc1 | > 2000 | 0.76 (≈ 0.00217 µM) | > 2000 | > 2000 | > 100 | > 290 | – | – |
| – | C#CCN(Cc1cnc2nc(N)nc(O)c2n1)c1ccc(C(=O)NC(CCC(=O)O)C(=O)O)cc1 (stereo not drawn) | > 2000 | 0.56 (≈ 0.00117 µM) | > 2000 | > 2000 | > 100 | 3.9 | > 3000 | 7.5 |
| – | C#CCN(Cc1ccc2[nH]c(N)nc(=O)c2c1)c1ccc(C(=O)NC(CCC(=O)O)C(=O)O)cc1 (stereo not drawn) | – | – | 2000 (≈ 4.19 µM) | – | – | – | – | – |
| – | Nc1nc2ncc(CNc3ccc(C(=O)N[C@@H](CCC(=O)O)C(=O)O)cc3)nc2c(=O)[nH]1 [FOLIC ACID] | – | – | – | – | – | – | > 1000 | 1800 |
| > 500000 | CN(Cc1cnc2nc(N)nc(N)c2n1)c1ccc(C(=O)N[C@@H](CCC(=O)O)C(=O)O)cc1 [METHOTREXATE] | – | – | – | 0.02 (≈ 4.4e-05 µM) | – | – | – | – |

Source: ChEMBL document CHEMBL1123313, “Folate analogues. 25. Synthesis and biological evaluation of N10-propargylfolic acid and its reduced derivatives” (J Med Chem, 1986)
